Data taken from article PMC5913645, “Methyl phenlactonoates are efficient strigolactone analogs with simple structure” (Journal of Experimental Botany, 2017).
Entries after “also recorded” stand apart in the source; their conditions may differ.

Key:
parasite seed = settings: ref Fukui et al., 2013; cited from earlier work
rice d10 mutant = assay: Rice micro tillering bioassay, d10 mutant; format: in vivo; settings: 2.5 μM
Method: Rice seeds (WT, d3, d10) were surface-sterilized by washing with 70% ethanol for 1 min and then with 2.5% sodium hypochlorite for 15 min. Seeds were then rinsed thoroughly with sterile MilliQ water and incubated in water for 2 d at 30 °C in the dark. Pre-germinated seeds were transferred to filter papers containing half-strength MS medium in 90 mm Petri dishes and incubated at 30 °C under fluorescent white light (130–180 μmol m^−2 s^−1) for 1 week. Seven-day-old seedlings were transferred to 50 ml falcon tubes (one seedling per tube) containing modified half-strength Hoagland nutrient solution and grown in greenhouse. Plants were treated with MPs at 2.5 μM to 2.5 × 10^–7 μM, using GR24 as positive control. The compounds were applied six times, twice a week. Number of tillers per plant, plant height and fresh biomass were measured at final harvest.
Statistical analyses were carried out using the statistical software package R (version 3.2.2). Dose–response curves and half-maximum effective concentrations (EC50) were calculated to determine optimum amount of MPs. The synthetic strigolactone analog GR24 was used as reference to estimate efficacy of selected compounds. EC50 and estimated response were calculated using the drc package (https://cran.r-project.org/web/packages/drc/) with a four parameter logistic curve (dose–response curve) ([Ritz and Streibig, 2005]).

P. ramosa seeds [1] = assay: P. ramosa seed germination bioassay; format: in vivo, Phelipanche ramosa; settings: 1.0 μM
Method: (§1) Parasitic weed seeds’ (S. hermonthica and P. ramosa) germination activity was studied as described previously ([Jamil et al., 2012]). Six pre-conditioned seed discs were placed in a 90 mm Petri dish containing a filter paper ring wetted with 0.9 ml sterile MilliQ water. Then 50 μl of SL analog solution (10^–5–10^–12 M) was applied on each of the six discs, for each concentration. GR24 solutions with equal concentrations and sterile MilliQ water were included as a positive and negative control, respectively. After application, seeds of S. hermonthica and P. ramosa were incubated in dark at 30 °C for 2 d and at 25 °C for 4 d, respectively. Germination (seeds with radicle emerging through the seed coat) was scored under a binocular microscope, and germination rate (%) was calculated.

S. hermonthica seeds [2] = assay: Striga hermonthica seed germination bioassay; format: in vivo; settings: for EC50: Striga hermonthica, concentrations 10^–5 to 10^–12 M; for germination activity, order among the chlorophenyl compounds: species not given
Method: as §1, with “calculated. Statistical analyses were carried out using the statistical software package R (version 3.2.2). Dose–response curves and half-maximum effective concentrations (EC50) were calculated to determine optimum amount of MPs. The synthetic strigolactone analog GR24 was used as reference to estimate efficacy of selected compounds. EC50 and estimated response were calculated using the drc package (https://cran.r-project.org/web/packages/drc/) with a four parameter logistic curve (dose–response curve) ([Ritz and Streibig, 2005]).” for “calculated.”

[3] = Chemical stability in aqueous solution (UHPLC); format: physicochemical; settings: aqueous solution pH 6.8, 21 °C, 50 μg ml^−1, monitored at 24 h intervals up to 3 weeks
Method: Aqueous solutions of MPs (50 μg ml^−1; pH 6.8) were incubated at 21 °C in amber HPLC vials (adapted from [de Saint Germain et al., 2016]). For sample preparation, 50 μl of an acetone solution (1 mg ml^−1) was diluted to the final concentration with methanol (425 μl), water (500 μl) and 25 μl of 1-indanol (1.0 mg ml^−1 solution in acetone) as internal standard. […] Compounds eluted from the column were detected with a diode array detector. The relative quantity of remaining (non-degraded) product was determined by comparison with the internal standard. Stability was monitored at 24 h intervals up to 3 weeks.

Arabidopsis seedlings [4] = assay: Arabidopsis lateral root density; format: in vivo; settings: 1.0 μM, 8-day-old seedlings
Method: Sterilized Arabidopsis seeds were sown on half-strength MS (with 0.5% sucrose+1% agar, 0.5 g l^−1 MES, pH 5.7) plates supplemented with GR24 or MPs (at 1.0 μM). Plates were stored at 4 °C in darkness for 3 d and then vertically grown at 22 °C in a Percival incubator under long day condition (16 h at 22 °C/8 h at 16 °C day/night, 60% relative humidity, 60–70 μmol m^−2 s^−1 white light) for 8 d. For determining the effect on lateral root density and primary root length, at least 30 seedlings were measured using ImageJ software after scanning roots.

Arabidopsis seedlings [5] = assay: Arabidopsis hypocotyl elongation assay; format: in vivo; settings: 1.0 μM, continuous red light
Method: Sterilized Arabidopsis seeds were sown on half-strength MS (with 0.5% sucrose+1% agar, 0.5 g l^−1 MES, pH 5.7) plates supplemented with MPs or GR24 (at 1.0 μM). Plates were stored at 4 °C in darkness for 3 d. To initiate germination, plates were exposed to continuous white light for 24 h, then transferred to continuous monochromatic red light (20 μmol m^−2 s^−1, 22 °C) conditions for another 4 d. For hypocotyl length measurement, at least 30 seedlings were measured using the freely available ImageJ software (http://rsbweb.nih.gov/ij/) after taking digital photographs. A monochromatic red light source was applied as described previously ([Wu and Yang, 2010]). Light flow rates were measured using a Li250 quantum photometer (Li-Cor, Lincoln, NE, USA).

S. hermonthica seeds [6] = settings: cited from earlier work
P. ramosa seeds [7] = test system: P. ramosa seeds; design: method as in Wigchert et al., 1999; settings: ref Wigchert et al., 1999; cited from earlier work
Arabidopsis seedlings [8] = test system: Arabidopsis seedlings; design: method as in Jia et al. (2016); settings: ref Jia et al., 2016; cited from earlier work

For CC1=CC(Oc2ccc(Br)cc2)OC1=O (centres unmarked) [4-Br-debranone], the “activity in inducing parasite seed germination” value (parasite seed) is given as “moderate activity”.
For COC(=O)/C(=C/OC1C=C(C)C(=O)O1)c1ccccc1[N+](=O)[O-] (centres unmarked) [MP2], the “growth, senescence symptoms and biomass of rice seedlings” value (“growth, senescence symptoms and biomass” for short) (rice d10 mutant) was “stunted the growth and caused senescence symptoms”, the “P. ramosa germination activity” value (P. ramosa seeds [1]) was “much higher activity” and the EC50 (S. hermonthica seeds [2]) was 32 nM. For the same compound, the “stability in comparison with GR24” value [3] was “more stable than GR24”.
With COC(=O)/C(=C/OC1C=C(C)C(=O)O1)c1ccc(C)cc1 (centres unmarked) [MP4] the “stability in comparison with GR24” value [3] was “more stable than GR24”.
For CC1=CC(O/C=C2/C(=O)OCc3ccccc32)OC1=O (centres unmarked) [MP5], the “stability in comparison with GR24” value [3] was “more stable than GR24; also recorded: most stable compound”.
For COC(=O)/C(=C/OC1C=C(C)C(=O)O1)c1cccc(F)c1 (centres unmarked) [MP6], the “growth, senescence symptoms and biomass” value (rice d10 mutant) was “stunted the growth and caused senescence symptoms”.
With COC(=O)/C(=C/OC1C=C(C)C(=O)O1)c1cccc(Cl)c1 (centres unmarked) [MP8] the “P. ramosa germination activity” value (P. ramosa seeds [1]) was “much higher activity”, the “germination activity, order among the chlorophenyl compounds” value (S. hermonthica seeds [2]) was “highest germination activity with MP7 (Cl in para position) followed by MP9 (ortho position) and MP8 (meta position)” and the “reduction of lateral root number/density” value (Arabidopsis seedlings [4]) was “slightly more active than GR24”. For the same compound, the “stability in comparison with GR24” value [3] was “very similar to that of GR24”.
For COC(=O)/C(=C/OC1C=C(C)C(=O)O1)c1ccccc1Cl (centres unmarked) [MP9], the “growth, senescence symptoms and biomass” value (rice d10 mutant) was “stunted the growth and caused senescence symptoms”, the “germination activity, order among the chlorophenyl compounds” value (S. hermonthica seeds [2]) was “highest germination activity with MP7 (Cl in para position) followed by MP9 (ortho position) and MP8 (meta position)” and the “stability in comparison with GR24” value [3] was “very similar to that of GR24”.
In the case of COC(=O)/C(=C\OC1C=C(C)C(=O)O1)c1ccccc1Cl (centres unmarked) [MP10], the “growth, senescence symptoms and biomass” value (rice d10 mutant) is reported as “stunted the growth and caused senescence symptoms” and the “stability in comparison with GR24” value [3] is reported as “more stable than GR24”.
For COC(=O)C(=COC1C=C(C)C(=O)O1)c1cccc2ccccc12 (centres unmarked) [MP11], the “S. hermonthica germination rate” value (S. hermonthica seeds [2]; 1.0 μM) was 32%, the EC50 (S. hermonthica seeds [2]) was 1700 nM and the “stability in comparison with GR24” value [3] was “very similar to that of GR24”.
In the case of CC1=CC(O/C=C(/C=O)c2ccc([N+](=O)[O-])cc2)OC1=O (centres unmarked) [MP12, (E)-3-(4-methyl-5-oxo-2,5-dihydrofuran-2-yloxy)-2-(4-nitrophenyl)acrylaldehyde], the “inhibition of hypocotyl growth” value (Arabidopsis seedlings [5]) is reported as “Apart from MP12 and MP15, all MPs showed significant inhibition” and the “stability in comparison with GR24” value [3] is reported as “quite unstable and not detectable even after only 24 h”.
In the case of COC(=O)/C(=C/OC1C=C(C)C(=O)O1)c1ccc(OC)cc1 (centres unmarked) [MP14], the “stability in comparison with GR24” value [3] is reported as “very similar to that of GR24”.
In the case of COC(=O)/C(=C/OC1C=C(C)C(=O)O1)c1ccc(O)cc1 (centres unmarked) [MP15], the “inhibition of hypocotyl growth” value (Arabidopsis seedlings [5]) is reported as “Apart from MP12 and MP15, all MPs showed significant inhibition” and the “stability in comparison with GR24” value [3] is reported as “slightly less stable than GR24”.
For COC(=O)/C(=C/O[C@H]1C=C(C)C(=O)O1)N1C(=O)c2ccccc2C1=O [Nijmegen-1], the “EC50 for S. hermonthica germination relative to GR24” value (S. hermonthica seeds [6]; ref Wigchert et al., 1999) is given as “three orders of magnitude higher than GR24” and the “seed germination in P. ramosa” value (P. ramosa seeds [7]) is given as “potent inducer”.
In the case of CC1=CC(O/C=C(/C)c2ccc([N+](=O)[O-])cc2)OC1=O (centres unmarked) [nitro-phenlactone], the “effect on lateral root density” value (Arabidopsis seedlings [8]) is listed as “did not affect lateral root density” and the “activity in stimulating S. hermonthica germination” value (S. hermonthica seeds [6]; ref Jia et al., 2016) is listed as “very weak activity”.
